Results reported in BindingDB's records for doi:10.1016/j.bmcl.2008.02.001 (Cephalon, 2008).

Assay: Inhibition of VEGF-stimulated VEGFR2 autophosphorylation in HUVEC cells […] relative to control

Compound: CO/N=C(\C)c1ccc2c(c1)c1c3c(c4c(c1n2CC(C)C)CCc1nn(C)cc1-4)C(=O)NC3 [7-[(1E)-1-(methoxyimino)ethyl]-19-methyl-3-(2-methylpropyl)-3,13,19,20-tetraazahexacyclo[14.7.0.0^{2,10}.0^{4,9}.0^{11,15}.0^{17,21}]tricosa-1(16),2(10),4,6,8,11(15),17,20-octaen-14-one]
- IC50: 4 nM
